Source: patent US20220281848A1, “PYRAZOLE-SUBSTITUTED PYRROLIDINONES AS HERBICIDES” (FMC Corporation, priority 2019, published 2022)

What was measured:
Assay type in all cases: in vivo
plants = assay: Test D post-emergence, other plants of Tables D2 and D4; settings: post-emergence
Experimental: A formulation containing 50 g/L of the test chemical was prepared by dissolving the active ingredient in a mixture of organic solvents and emulsifier, details of which are provided in the table. This formulation was then mixed with a small, variable amount of acetone to aid dissolution, before addition of a 0.2% v/v aqueous solution of an adjuvant, as the aqueous diluent, to form an aqueous spray solution which contains a predetermined concentration of the active ingredient.
This aqueous spray solution was then sprayed onto plants including maize and wheat that had been seed treated with a herbicide safener, after one day's cultivation (for pre-emergence) or after about 12 days' cultivation (for post-emergence). The plants were grown from seeds sown in standard soil, placed in a glasshouse under controlled conditions (at 24/18° C. or 20/16° C., day/night; 16 h light; 65% humidity). After spray application the plants were then grown in a glasshouse under the same conditions and watered twice daily. After 15 d for post-emergence and 20 DAA for pre-emergence the test was evaluated (100=total damage to plant; 0=no damage to plant).

[1] = tested on: barnyardgrass (Echinochloa crus-galli, ECHCG); assay: Test A pre-emergence, barnyardgrass; settings: after 13 d
Summary of the method: (§1)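 Pots of soil sown, sprayed at day 1 post-sowing: test compound at 15.625/62.5/250 g/ha in acetone:water 1:1 + 0.5% Tween 20. Glasshouse 24/16° C., 14 h light, 65% RH, watering twice daily. Readout: % damage after 13 d.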

[2] = tested on: velvetleaf (Abutilon theophrasti, ABUTH); assay: Test A pre-emergence, velvetleaf; settings: after 13 d
Summary of the method: as §1

corn (Zea mays, ZEAMX) = assay: Test A post-emergence, corn; settings: after 13 d
Summary of the method: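 Visual damage at 13 d after treatment, rated from 0 (no damage) to 100 (total damage). Eight-day-old pot-grown plants had been sprayed with 15.625, 62.5 or 250 g/ha of compound in aqueous acetone (50:50) containing 0.5% Tween 20.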

For CN1CC(c2cc(C(F)(F)F)n(C)n2)C(C(=O)Nc2ccc(F)cc2F)C1=O (racemic) [Compound 6], the “damage to plant (100=total damage to plant; 0=no damage to plant), AMARE” value (plants; rate 130, evaluated after 15 d) was 0, the “damage to plant (100=total damage to plant; 0=no damage to plant), AMARE” value (plants; rate 500, evaluated after 15 d) was 20 and the “damage to plant (100=total damage to plant; 0=no damage to plant), BIDPI” value (plants; rate 130, evaluated after 15 d) was 0. For the same compound, the “damage to plant (100=total damage to plant; 0=no damage to plant), BIDPI” value (plants; rate 250, evaluated after 15 d) was 0, the “damage to plant (100=total damage to plant; 0=no damage to plant), BIDPI” value (plants; rate 500, evaluated after 15 d) was 0 and the “damage to plant (100=total damage to plant; 0=no damage to plant), BRAPL” value (plants; rate 130, evaluated after 15 d) was 50. The “damage to plant (100=total damage to plant; 0=no damage to plant), BRAPL” value (plants; rate 250, evaluated after 15 d) was 60, the “damage to plant (100=total damage to plant; 0=no damage to plant), BRAPL” value (plants; rate 500, evaluated after 15 d) was 70 and the “damage to plant (100=total damage to plant; 0=no damage to plant), CYPES” value (plants; rate 130, evaluated after 15 d) was 0. The “damage to plant (100=total damage to plant; 0=no damage to plant), CYPES” value (plants; rate 250, evaluated after 15 d) was 0, the “damage to plant (100=total damage to plant; 0=no damage to plant), CYPES” value (plants; rate 500, evaluated after 15 d) was 0 and the “damage to plant (100=total damage to plant; 0=no damage to plant), DIGSA” value (plants; rate 130, evaluated after 15 d) was 0. For the same compound, the “damage to plant (100=total damage to plant; 0=no damage to plant), DIGSA” value (plants; rate 250, evaluated after 15 d) was 60, the “damage to plant (100=total damage to plant; 0=no damage to plant), DIGSA” value (plants; rate 500, evaluated after 15 d) was 70 and the “damage to plant (100=total damage to plant; 0=no damage to plant), ECHCG” value (plants; rate 130, evaluated after 15 d) was 0. For the same compound, the “damage to plant (100=total damage to plant; 0=no damage to plant), ECHCG” value (plants; rate 250, evaluated after 15 d) was 50, the “damage to plant (100=total damage to plant; 0=no damage to plant), ECHCG” value (plants; rate 500, evaluated after 15 d) was 70 and the “damage to plant (100=total damage to plant; 0=no damage to plant), ELEIN” value (plants; rate 130, evaluated after 15 d) was 0. The “damage to plant (100=total damage to plant; 0=no damage to plant), ELEIN” value (plants; rate 250, evaluated after 15 d) was 0, the “damage to plant (100=total damage to plant; 0=no damage to plant), ELEIN” value (plants; rate 500, evaluated after 15 d) was 0 and the “damage to plant (100=total damage to plant; 0=no damage to plant), EPHHL” value (plants; rate 130, evaluated after 15 d) was 10. For the same compound, the “damage to plant (100=total damage to plant; 0=no damage to plant), EPHHL” value (plants; rate 250, evaluated after 15 d) was 20, the “damage to plant (100=total damage to plant; 0=no damage to plant), EPHHL” value (plants; rate 500, evaluated after 15 d) was 30 and the “damage to plant (100=total damage to plant; 0=no damage to plant), GLXMA” value (plants; rate 130, evaluated after 15 d) was 0. For the same compound, the “damage to plant (100=total damage to plant; 0=no damage to plant), GLXMA” value (plants; rate 250, evaluated after 15 d) was 0, the “damage to plant (100=total damage to plant; 0=no damage to plant), GLXMA” value (plants; rate 500, evaluated after 15 d) was 0 and the “damage to plant (100=total damage to plant; 0=no damage to plant), IPOHE” value (plants; rate 130, evaluated after 15 d) was 0. For the same compound, the “damage to plant (100=total damage to plant; 0=no damage to plant), IPOHE” value (plants; rate 250, evaluated after 15 d) was 10, the “damage to plant (100=total damage to plant; 0=no damage to plant), IPOHE” value (plants; rate 500, evaluated after 15 d) was 20 and the “damage to plant (100=total damage to plant; 0=no damage to plant), ORYSA” value (plants; rate 130, evaluated after 15 d) was 0. For the same compound, the “damage to plant (100=total damage to plant; 0=no damage to plant), ORYSA” value (plants; rate 250, evaluated after 15 d) was 0, the “damage to plant (100=total damage to plant; 0=no damage to plant), ORYSA” value (plants; rate 500, evaluated after 15 d) was 0 and the “damage to plant (100=total damage to plant; 0=no damage to plant), PANMI” value (plants; rate 130, evaluated after 15 d) was 0. For the same compound, the “damage to plant (100=total damage to plant; 0=no damage to plant), PANMI” value (plants; rate 250, evaluated after 15 d) was 0, the “damage to plant (100=total damage to plant; 0=no damage to plant), PANMI” value (plants; rate 500, evaluated after 15 d) was 0 and the “damage to plant (100=total damage to plant; 0=no damage to plant), SETFA” value (plants; rate 130, evaluated after 15 d) was 0. The “damage to plant (100=total damage to plant; 0=no damage to plant), SETFA” value (plants; rate 250, evaluated after 15 d) was 20, the “damage to plant (100=total damage to plant; 0=no damage to plant), SETFA” value (plants; rate 500, evaluated after 15 d) was 70 and the “damage to plant (100=total damage to plant; 0=no damage to plant), SORVU” value (plants; rate 130, evaluated after 15 d) was 0. For the same compound, the “damage to plant (100=total damage to plant; 0=no damage to plant), SORVU” value (plants; rate 250, evaluated after 15 d) was 0, the “damage to plant (100=total damage to plant; 0=no damage to plant), SORVU” value (plants; rate 500, evaluated after 15 d) was 0 and the “damage to plant (100=total damage; 0=no damage) ECHCG” value ([1]; Pre-Emergence at 15.625 g/ha) was 80. For the same compound, the “damage to plant (100=total damage; 0=no damage) ECHCG” value ([1]; Pre-Emergence at 62.5 g/ha) was 90, the “damage to plant (100=total damage; 0=no damage) ECHCG” value ([1]; Pre-Emergence at 250 g/ha) was 90 and the “damage to plant (100=total damage; 0=no damage) ABUTH” value ([2]; Pre-Emergence at 15.625 g/ha) was 80. The “damage to plant (100=total damage; 0=no damage) ABUTH” value ([2]; Pre-Emergence at 62.5 g/ha) was 70, the “damage to plant (100=total damage; 0=no damage) ABUTH” value ([2]; Pre-Emergence at 250 g/ha) was 70 and the “damage to plant (100=total damage; 0=no damage) ZEAMX” value (corn (Zea mays, ZEAMX); Post-Emergence at 15.625 g/ha) was 10. For the same compound, the “damage to plant (100=total damage; 0=no damage) ZEAMX” value (corn (Zea mays, ZEAMX); Post-Emergence at 62.5 g/ha) was 20 and the “damage to plant (100=total damage; 0=no damage) ZEAMX” value (corn (Zea mays, ZEAMX); Post-Emergence at 250 g/ha) was 60.
